Experiments:
HSV-1 protease = target: T1, HSV-1 protease (Human herpesvirus 1, UniProt P10210); test: Enzymatic assay for HSV-1 protease (assembly) inhibitor, fluorescence polarization; assay type: biochemical; details: read-out: HSV-1 Enzyme inhibition IC50
T1 construct: 6xHis (N); made in house; host or cells: baculovirus expression system
Outline: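 Fluorescence polarization read-out: after avidin stop, cleavage of a biotinylated DTAF-labelled release-site peptide by recombinant N-His6 HSV-1 protease was compared with no-inhibitor wells. Enzyme and compound were preincubated 30 min, then substrate reacted 60 min, all at room temperature, pH 7.4 citrate buffer with TCEP.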

Human plasma stability = assay type: in vitro ADME
Protocol: An Assay Method for Human Plasma Stability Human plasma was thawed, 200 μl each thereof was placed in each cell of a 96-well plate immediately thereafter, and 4 μl of solution of each test compound in 1 mM DMF was added thereto. A microplate reader for fluorescence absorption was used to assay changes in fluorescence, and half life was determined based on the changes.

HSV-1 = test: Antiviral activity, HSV-1 in Vero cells, plaque method; assay type: cell-based; details: Human alphaherpesvirus 1, 20 hours, 90% inhibition of plaque formation
Outline: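 This is a virus-yield read-out. The culture medium was frozen at −80° C and thawed, and the plaques it formed were counted. It came from Vero monolayers infected with 50,000 pfu HSV-1 and then exposed to the compound for 20 h at 37° C. EC90 is the concentration inhibiting 90% of plaque formation relative to the untreated infected control.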

Vero cells = test: Cytotoxicity, Vero cells, Alamar Blue; assay type: cell-based; details: 25 μM, 20 hours
Outline: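 Living-cell ratio versus untreated control was read by Alamar Blue absorbance after about 6 h of dye incubation. Before that, Vero cells had received 25 μM test compound in 2% FBS-DMEM for 20 hours at 37 °C under 5% CO2.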

VZV = test: Antiviral activity 2, plaque formation in HEL cells; assay type: cell-based; details: Human alphaherpesvirus 3, 72 h, 3 days
Protocol: (§1) An Assay Method for Antiviral Activity 2
(§2) The HEL cells were sowed on a 48-well plate and then cultured overnight. The culture supernatant was removed, and 100 μl of 2% FBS-DMEM containing 40 Plaque-forming units of HSV-1, HSV-2, VZV, or CMV was added. A viral solution Was removed 1 hour later, and 500 μl of 2% FBS-DMEM containing 0.5% methylcellulose comprising 50, 25, 12.5, 6.3, 3.2, or 1.6 μM of the test compound was added. In this case, a substance to which 2% FBS-DMEM containing 0.5% methylcellulose not comprising any test compound had been added was designated as a control. In the case of HSV-1, HSV-2, or VZV, incubation was carried out in the presence of 5% CO2 at 37° C. for 3 days. In the case of CMV, incubation was carried out under the same conditions for 14 days. After they were immobilized on formalin and stained with bromophenol blue, the amount of plaque formed was counted, and the ratio of plaque formation of the drug-containing reaction system relative to the control was determined. The concentration of the drug with which the ratio of plaque formation reaches 50% was calculated and determined to be IC50. Concerning HSV-1, an aciclovir-resistant thymidine kinase variant and a DNA polymerase variant were examined in addition to a general aciclovir-sensitive strain.

[1] = system: HSV1 Thimidine kinase variant; test: as above; assay type: cell-based, HSV-1; details: Human alphaherpesvirus 1, HEL, 72 h, read-out: Antiviral activity: IC50, HSV1 Thimidine kinase variant
Protocol: as §1, §2

[2] = system: HSV1 DNA polymerase variant; test: as above; assay type: cell-based, HSV-1; details: Human alphaherpesvirus 1, HEL, 72 h, read-out: Antiviral activity: IC50, HSV1 DNA polymerase variant
Protocol: as §1, §2

HSV1 Sensitive strain = test: as above; assay type: cell-based, HSV-1; details: Human alphaherpesvirus 1, 72 h, 3 days
Protocol: as §1, §2

HCMV = test: as above; assay type: cell-based, CMV; details: Human betaherpesvirus 5, 336 h, 14 days
Protocol: as §1, §2

HSV2 = test: as above; assay type: cell-based, HSV-2; details: Human alphaherpesvirus 2, 72 h, 3 days
Protocol: as §1, §2

T1 sequence (P10210 1-247): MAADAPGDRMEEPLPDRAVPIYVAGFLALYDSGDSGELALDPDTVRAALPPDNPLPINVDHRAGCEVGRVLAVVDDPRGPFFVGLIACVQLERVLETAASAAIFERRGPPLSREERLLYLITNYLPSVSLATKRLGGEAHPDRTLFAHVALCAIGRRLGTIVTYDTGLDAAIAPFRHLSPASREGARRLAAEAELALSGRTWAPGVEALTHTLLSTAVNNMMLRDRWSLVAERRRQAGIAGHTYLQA

Row | Structure (SMILES) | IC50 (HSV-1 protease) | half-life at 19.6 μM (Human plasma stability) | EC90 (HSV-1) | Cell viability (% of control) (Vero cells) | IC50 (VZV) | IC50 [1] | IC50 [2] | IC50 (HSV1 Sensitive strain) | IC50 (HCMV) | IC50 (HSV2)
1 | Cc1c(NC(=O)OC(C)(C)C)ccc2nc(NC(C)(C)C(=O)N(C)CCc3cccnc3)oc(=O)c12 [Compound No.19, (5-Methyl-2-{1-methyl-1-[methyl-(2-pyridin-3-yl-ethyl)-carbamoyl]-ethylamino}-4-oxo-4H-benzo[d][1,3]oxazin-6-yl)-carbamic Acid Tert-Butyl Ester] | 300 nM | 372 min | 6.2 µM | 106.0% |  |  |  |  |  | 
2 | Cc1c(NC(=O)OC(C)(C)C)ccc2nc(N[C@@H](Cc3ccccc3)C(=O)NCc3ccccn3)oc(=O)c12 [Compound No.20, (5-Methyl-4-oxo-{2-2-phenyl-1S-[(pyridin-2-ylmethyl)-carbamoyl]-ethylamino}-4H-benzo[d][1,3]oxazin-6-yl)-carbamic Acid Tert-Butyl Ester] | 500 nM | 88 min | 5.9 µM | 101.0% |  |  |  |  |  | 
3 | Cc1c(NC(=O)OC(C)(C)C)ccc2nc(N[C@@H](Cc3ccccc3)C(=O)N(C)CCc3ccccn3)oc(=O)c12 [Compound No.21, (5-Methyl-2-{1-[methyl-1S-(2-pyridin-2-yl-ethyl)-carbamoyl]-2-phenyl-ethylamino}-4-oxo-4H-benzo[d][1,3]oxazin-6-yl)-carbamic Acid Tert-Butyl Ester] | 1500 nM | 107 min | 5.9 µM | 53.2% | 6.4 µM | 16.1 µM | 6.9 µM | 6.1 µM | > 5 µM | 10.7 µM
4 | Cc1c(NC(=O)OC(C)(C)C)ccc2nc(N[C@@H](CCc3ccccc3)C(=O)N(C)Cc3ccccn3)oc(=O)c12 [Compound No.23, {5-Methyl-2-[1S-(methyl-pyridin-2-ylmethyl-carbamoyl)-3-phenyl-propylamino]-4-oxo-4H-benzo[d][1,3]oxazin-6-yl}-carbamic Acid Tert-Butyl Ester] | 700 nM | 595 min | < 3.2 µM | 52.0% |  |  |  |  |  | 
5 | Cc1c(NC(=O)OC(C)(C)C)ccc2nc(N[C@@H](C)C(=O)N(C)Cc3ccccn3)oc(=O)c12 [Compound No.58, {5-Methyl-2-[1S-(methyl-pyridin-2-ylmethyl-carbamoyl)-ethylamino]-4-oxo-4H-benzo[d][1,3]oxazin-6-yl}-carbamic acid tert-butyl ester] | 1700 nM | 531 min | 10.8 µM | 105.0% |  |  |  |  |  | 
6 | Cc1c(NC(=O)OC(C)(C)C)ccc2nc(NC(C)(C)C(=O)N(C)Cc3ccccn3)oc(=O)c12 [Compound No.59, {5-Methyl-2-[1-methyl-1-(methyl-pyridin-2-ylmethyl-carbamoyl)-ethylamino]-4-oxo-4H-benzo[d][1,3]oxazin-6-yl}-carbamic acid tert-butyl ester] | 1100 nM | 308 min | 10.1 µM | 106.0% |  |  |  |  |  | 
7 | Cc1c(NC(=O)OC(C)(C)C)ccc2nc(N[C@@H](C)C(=O)N(C)CCc3cccnc3)oc(=O)c12 [Compound No.65, (5-Methyl-2-{1S-[methyl-(2-pyridin-3-yl-ethyl)-carbamoyl]-ethylamino}-4-oxo-4H-benzo[d][1,3]oxazin-6-yl)-carbamic acid tert-butyl ester] | 200 nM | 181 min | 7.6 µM | 104.0% |  |  |  |  |  | 
8 | Cc1c(NC(=O)OC(C)(C)C)ccc2nc(NC3(C(=O)N(C)Cc4cccnc4)CCCCC3)oc(=O)c12 [Compound No.120, {5-Methyl-2-[1-(methyl-pyridin-3-ylmethyl-carbamoyl)-cyclohexylamino]-4-oxo-4H-benzo[d][1,3]oxazin-6-yl}-carbamic acid tert-butyl ester] | 1200 nM | 893 min | 10 µM |  |  |  |  |  |  | 
9 | Cc1c(NC(=O)OC(C)(C)C)ccc2nc(NC3(C(=O)N(C)CCc4ccncc4)CCCCC3)oc(=O)c12 [Compound No.129, (5-Methyl-2-{1-[methyl-(2-pyridin-4-yl-ethyl)-carbamoyl]-cyclohexylamino}-4-oxo-4H-benzo[d][1,3]oxazin-6-yl)-carbamic acid tert-butyl ester] | 1100 nM | > 900 min | 5.8 µM |  | > 5 µM | 17.7 µM | 8.7 µM | 5.8 µM | > 5 µM | 10.3 µM
10 | Cc1c(NC(=O)CCCNC(=O)c2ccc(N(C)C)cc2)ccc2nc(NC(C)(C)C(=O)N(C)CCc3ccccn3)oc(=O)c12 [Compound No.224, 4-Dimethylamino-N-[3-(5-methyl-2-{1-methyl-1-[methyl-(2-pyridin-2-yl-ethyl)-carbamoyl]-ethylamino}-4-oxo-4H-benzo[d][1,3]oxazin-6-ylcarbamoyl)-propyl]-benzamide] | 400 nM |  | > 12.5 µM | 107.5% |  |  |  |  |  | 
11 | Cc1c(NC(=O)c2ccccc2Cl)ccc2nc(NC(C)(C)C(=O)N(C)CCc3ccccn3)oc(=O)c12 [compound 151, 2-Chloro-N-(5-methyl-2-{1-methyl-1-[methyl-(2-pyridin-2-yl-ethyl)-carbamoyl]-ethylamino}-4-oxo-4H-benzo[d][1,3]oxazin-6-yl)-benzamide] | 1400 nM |  | 7.6 µM | 74.2% |  |  |  |  |  | 
12 | Cc1cccc(C(=O)Nc2ccc3nc(NC(C)(C)C(=O)N(C)CCc4ccccn4)oc(=O)c3c2C)c1 [compound 157, 3-Methyl-N-(5-methyl-2-{1-methyl-1-[methyl-(2-pyridin-2-yl-ethyl)-carbamoyl]-ethylamino}-4-oxo-4H-benzo[d][1,3]oxazin-6-yl)-benzamide] | 3300 nM |  | 6.2 µM | 70.5% |  |  |  |  |  | 
13 | COc1cc(OC)cc(C(=O)Nc2ccc3nc(NC(C)(C)C(=O)N(C)CCc4ccccn4)oc(=O)c3c2C)c1 [compound 191, 3,5-Dimethoxy-N-(5-methyl-2-{1-methyl-1-[methyl-(2-pyridin-2-yl-ethyl)-carbamoyl]-ethylamino}-4-oxo-4H-benzo[d][1,3]oxazin-6-yl)-benzamide] | 600 nM |  | > 12.5 µM | 89.1% |  |  |  |  |  | 
14 | Cc1c(NC(=O)c2ccccc2Br)ccc2nc(NC(C)(C)C(=O)N(C)CCc3ccccn3)oc(=O)c12 [compound 199, 2-Bromo-N-(5-methyl-2-{1-methyl-1-[methyl-(2-pyridin-2-yl-ethyl)-carbamoyl]-ethylamino}-4-oxo-4H-benzo[d][1,3]oxazin-6-yl)-benzamide] | 3000 nM |  | 4.1 µM | 56.9% |  |  |  |  |  | 
15 | COc1ccc(CC(Nc2nc3ccc(NC(=O)OC(C)(C)C)c(C)c3c(=O)o2)C(=O)NCc2ccccn2)cc1 (stereo not shown) [compound 230, (2-{2-(4-Methoxy-phenyl)-1-[(pyridin-2-ylmethyl)-carbamoyl]-ethylamino}-5-methyl-4-oxo-4H-benzo[d][1,3]oxazin-6-yl)-carbamic acid tert-butyl ester, reference compound] | 400 nM | 27 min | 6.1 µM |  |  |  |  |  |  | 

From patent publication US20040116420A1 (priority 2001, published 2004)
